Source: patent publication US11840528B2 (Hoffmann-La Roche Inc., priority 2018, dated 2023)

Legend:
[1] = target: T1, h-GABA-A α5β3γ2 (Homo sapiens, UniProt P18507+P31644); assay: Two-electrode voltage clamp electrophysiology in Xenopus laevis oocytes expressing GABAA receptors, modulation of GABA EC20 current; assay type: cell-based; design: host or cells: Xenopus laevis oocytes micro-injected with RNA transcripts of the subunits
Method in brief: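 Human α5β3γ2 GABAA receptors were expressed in Xenopus oocytes by RNA injection, with γ2 RNA 5–10-fold higher, and recorded 3–5 days later by two-electrode voltage clamp at −80 mV at room temperature. The test compound, at about 30× its Ki, was co-applied during a second GABA EC20 pulse. Efficacy is the extremum of the point-by-point ratio to the first response, expressed as 100*(Fold increase−1).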

[2] = target: T1, h-GABA-A α5β3γ2; assay: [3H]flumazenil competition binding assay, membranes of HEK293 cells expressing GABAA receptors
Method in brief: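 Membranes from HEK293 cells transiently expressing human α5β3γ2 GABAA receptors, in Krebs-tris buffer pH 7.5, competed against [3H]flumazenil for 1 hour at 4° C to equilibrium. Bound radioactivity collected on GF/C filters and counted by liquid scintillation; Ki values are means of two determinations.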

[3] = % modulation of GABA EC20 = 100*(Fold increase-1), Table 1
[4] = test compound at approx. 30 fold its Ki, GABA at EC20, Table 1
[5] = displacement of [3H]-Flumazenil 0.5 nM, HEK293 cells expressing human receptors, mean of two determinations, Table 1

Efficacy (GABA) % [1, 3] | Fold increase h-GABA-A α5β3γ2 oocyte [1, 4] | Ki [2, 5] | Compound | Efficacy (GABA) % ([1]; reference compounds, % modulation of GABA EC20, Table 2) | Fold increase h-GABA-A α5β3γ2 oocyte ([1]; reference compounds, Table 2) | Ki ([2]; reference compounds, Table 2)
124% | 2.24 | 12.8 nM | Cc1onc(-c2ccc(Cl)nc2)c1Cn1ncc(N2CC(OC3CC3)C2)cc1=O [Example 224, 2-((3-(6-chloropyridin-3-yl)-5-methylisoxazol-4-yl)methyl)-5-(3-cyclopropoxyazetidin-1-yl)pyridazin-3(2H)-one] |  |  | 
155% | 2.55 | 25.8 nM | Cc1onc(-c2ccc(Cl)nc2)c1Cn1ncc(N2CC(OC(C)C(F)(F)F)C2)cc1=O (single isomer, unassigned) [Example 265] |  |  | 
72% | 1.72 | 6 nM | Cc1ccc(-c2noc(C)c2Cn2ncc(N3CC(O)C3)cc2=O)cn1 [Example 105, 5-(3-hydroxyazetidin-1-yl)-2-[[5-methyl-3-(6-methyl-3-pyridyl)isoxazol-4-yl]methyl]pyridazin-3-one] |  |  | 
111% | 2.11 | 5.6 nM | Cc1ccc(-c2noc(C)c2Cn2ncc(N3CC4(CC(C)CCO4)C3)cc2=O)nn1 (single isomer, unassigned) [Example 318] |  |  | 
57% | 1.57 | 7.9 nM | Cc1onc(-c2ccc(F)cc2)c1Cn1ncc(N2CCOCC2)cc1=O [Example 11, 2-((3-(4-Fluorophenyl)-5-methylisoxazol-4-yl)methyl)-5-morpholinopyridazin-3(2H)-one] |  |  | 
135% | 2.35 | 26.4 nM | CCOC1CN(c2cnn(Cc3c(-c4ccc(Cl)nc4)noc3C)c(=O)c2Cl)C1 [Example 272, 4-chloro-2-((3-(6-chloropyridin-3-yl)-5-methylisoxazol-4-yl)methyl)-5-(3-ethoxyazetidin-1-yl)pyridazin-3(2H)-one] |  |  | 
104% | 2.04 | 3.6 nM | Cc1ccc(-c2noc(C)c2Cn2ncc(N3CCNCC3)cc2=O)cn1 [Example 75, 2-[[5-methyl-3-(6-methyl-3-pyridyl)isoxazol-4-yl]methyl]-5-piperazin-1-yl-pyridazin-3-one] |  |  | 
50% | 1.5 | 17.2 nM | Cc1ccc(-c2noc(C)c2Cn2ncc(-c3ccc(C(F)(F)F)cc3)cc2=O)cn1 [Example 83] |  |  | 
 |  |  | Cc1onc(-c2ccccc2)c1COc1ccc(N2CCOCC2)nn1 [RO-036, reference compound] | −28% | 0.72 | 9.45 nM
147% | 2.47 | 27.6 nM | Cc1onc(-c2ccc(Cl)nc2)c1Cn1ncc(N2CC(OCC(F)(F)F)C2)cc1=O [Example 254, 2-((3-(6-chloropyridin-3-yl)-5-methylisoxazol-4-yl)methyl)-5-(3-(2,2,2-trifluoroethoxy)azetidin-1-yl)pyridazin-3(2H)-one] |  |  | 
87% | 1.87 | 8.6 nM | CCOC1CN(c2cnn(Cc3c(-c4ccc(C)nn4)noc3CF)c(=O)c2)C1 [Example 279, 5-(3-ethoxyazetidin-1-yl)-2-((5-(fluoromethyl)-3-(6-methylpyridazin-3-yl)isoxazol-4-yl)methyl)pyridazin-3(2H)-one] |  |  | 
94% | 1.94 | 2.8 nM | Cc1ccc(-c2noc(C)c2Cn2ncc(N3CCC4(CCOCC4)CC3)cc2=O)nn1 [Example 247, 2-[[5-methyl-3-(6-methylpyridazin-3-yl)isoxazol-4-yl]methyl]-5-(3-oxa-9-azaspiro[5.5]undecan-9-yl)pyridazin-3-one] |  |  | 
247% | 3.47 | 2.6 nM | Cc1onc(-c2ccc(Cl)nc2)c1Cn1ncc(N2C[C@@H](C)O[C@@H](C)C2)cc1=O [Example 219, 2-((3-(6-chloropyridin-3-yl)-5-methylisoxazol-4-yl)methyl)-5-((2RS,6SR)-2,6-dimethylmorpholino)pyridazin-3(2H)-one] |  |  | 
63% | 1.63 | 3.2 nM | Cc1ccc(-c2noc(C)c2Cn2ncc(N3CC4(CCC(F)CO4)C3)cc2=O)nn1 (single isomer, unassigned) [Example 288] |  |  | 
215% | 3.15 | 27.6 nM | Cc1onc(-c2ccc(Cl)nc2)c1Cn1ncc(N2CCN3C(=O)CCC3C2)cc1=O (stereo not drawn) [Example 223, 2-(1-((3-(6-chloropyridin-3-yl)-5-methylisoxazol-4-yl)methyl)-6-oxo-1,6-dihydropyridazin-4-yl)hexahydropyrrolo[1,2-a]pyrazin-6(2H)-one] |  |  | 
101% | 2.01 | 1.2 nM | Cc1ccc(-c2noc(C)c2Cn2ncc(N3CC(OCC(F)F)C3)cc2=O)nn1 [Example 306, 5-(3-(2,2-difluoroethoxy)azetidin-1-yl)-2-((5-methyl-3-(6-methylpyridazin-3-yl)isoxazol-4-yl)methyl)pyridazin-3(2H)-one] |  |  | 
82% | 1.82 | 31.2 nM | Cc1onc(-c2ccc(Cl)nc2)c1Cn1ncc(-c2cnn(C3CC3)c2)cc1=O [Example 222, 2-((3-(6-chloropyridin-3-yl)-5-methylisoxazol-4-yl)methyl)-5-(1-cyclopropyl-1H-pyrazol-4-yl)pyridazin-3(2H)-one] |  |  | 
103% | 2.03 | 6.6 nM | Cc1ccc(-c2noc(C)c2Cn2ncc(N(C)C)cc2=O)cn1 [Example 45, 5-(dimethylamino)-2-((5-methyl-3-(6-methylpyridin-3-yl)isoxazol-4-yl)methyl)pyridazin-3(2H)-one] |  |  | 
226% | 3.26 | 24.8 nM | Cc1ccc(-c2noc(C)c2Cn2ncc(N3CC4(CCC(C(F)(F)F)CO4)C3)cc2=O)nn1 (single isomer, unassigned) [Example 320] |  |  | 
103% | 2.03 | 29.7 nM | Cc1ccc(-c2noc(C)c2Cn2ncc(-c3cnn(CC4(C)COC4)c3)cc2=O)cn1 [Example 176, 2-((5-methyl-3-(6-methylpyridin-3-yl)isoxazol-4-yl)methyl)-5-(1-((3-methyloxetan-3-yl)methyl)-1H-pyrazol-4-yl)pyridazin-3(2H)-one] |  |  | 
149% | 2.49 | 4.4 nM | Cc1onc(-c2ccc(Cl)nc2)c1Cn1ncc(N2CCO[C@@H](C)C2)cc1=O [Example 227, (S)-2-((3-(6-chloropyridin-3-yl)-5-methylisoxazol-4-yl)methyl)-5-(2-methylmorpholino)pyridazin-3(2H)-one] |  |  | 

Compound | Efficacy (GABA) % [1, 3] | Fold increase h-GABA-A α5β3γ2 oocyte [1, 4] | Ki [2, 5] | Efficacy (GABA) % ([1]; reference compounds, % modulation of GABA EC20, Table 2) | Fold increase h-GABA-A α5β3γ2 oocyte ([1]; reference compounds, Table 2) | Ki ([2]; reference compounds, Table 2)
Cc1onc(-c2ccc(Cl)nn2)c1Cn1ncc(N2CC(OC(C)(C)C)C2)cc1=O [Example 271, 5-(3-(tert-butoxy)azetidin-1-yl)-2-((3-(6-chloropyridazin-3-yl)-5-methylisoxazol-4-yl)methyl)pyridazin-3(2H)-one] | 90% | 1.9 | 7.3 nM |  |  | 
